ChEMBL document CHEMBL3217491, “Design, synthesis and biological evaluation of imidazopyridine/pyrimidine-chalcone derivatives as potential anticancer agents” (2010)

Columns and labels:
Format in all cases: functional
786-0 = assay: Growth inhibition of human 786-0 cells after 48 hrs by SRB assay; settings: 786-0, 48 h
TK-10 = assay: Growth inhibition of human TK10 cells after 48 hrs by SRB assay; settings: TK-10, 48 h
MDA-MB-231 = assay: Growth inhibition of human MDA-MB-231 cells after 48 hrs by SRB assay; settings: MDA-MB-231, 48 h
SR = assay: Growth inhibition of human SR cells after 48 hrs by SRB assay
HL-60(TB) = assay: Growth inhibition of human HL-60(TB) cells after 48 hrs by SRB assay; settings: HL-60, 48 h
NCI-H460 = assay: Growth inhibition of human NCI-H460 cells after 48 hrs by SRB assay; settings: NCI-H460, 48 h
M14 = assay: Growth inhibition of human M14 cells after 48 hrs by SRB assay; settings: M14, 48 h
[1] = Growth inhibition of human NCI-ADR-RES cells after 48 hrs by SRB assay
[2] = Growth inhibition of human HCC2998 cells after 48 hrs by SRB assay; settings: HCC 2998, 48 h
NCI-H226 = assay: Growth inhibition of human NCI-H226 cells after 48 hrs by SRB assay; settings: NCI-H226, 48 h
HCT-116 = assay: Growth inhibition of human HCT116 cells after 48 hrs by SRB assay; settings: HCT-116, 48 h
U-251 = assay: Growth inhibition of human U251 cells after 48 hrs by SRB assay; settings: U-251, 48 h
[3] = Growth inhibition of human BT549 cells after 48 hrs by SRB assay; settings: BT-549, 48 h
MDA-MB-435 = assay: Growth inhibition of human MDA-MB-435 cells after 48 hrs by SRB assay; settings: MDA-MB-435, 48 h
[4] = Growth inhibition of human HCT15 cells after 48 hrs by SRB assay; settings: HCT-15, 48 h
MCF7 = assay: Growth inhibition of human MCF7 cells after 48 hrs by SRB assay; settings: MCF7, 48 h
SK-OV-3 = assay: Growth inhibition of human SKOV3 cells after 48 hrs by SRB assay; settings: SK-OV-3, 48 h
[5] = Growth inhibition of human SF295 cells after 48 hrs by SRB assay; settings: SF-295, 48 h
[6] = Growth inhibition of human UACC62 cells after 48 hrs by SRB assay; settings: UACC-62, 48 h
SN12C = assay: Growth inhibition of human SN12C cells after 48 hrs by SRB assay
[7] = Growth inhibition of human SF539 cells after 48 hrs by SRB assay; settings: SF-539, 48 h
[8] = Growth inhibition of human OVCAR5 cells after 48 hrs by SRB assay; settings: OVCAR-5, 48 h
IGROV-1 = assay: Growth inhibition of human IGROV1 cells after 48 hrs by SRB assay; settings: IGROV-1, 48 h
COLO 205 = assay: Growth inhibition of human COLO205 cells after 48 hrs by SRB assay; settings: COLO 205, 48 h
HT-29 = assay: Growth inhibition of human HT-29 cells after 48 hrs by SRB assay; settings: HT-29, 48 h
SK-MEL-2 = assay: Growth inhibition of human SK-MEL-2 cells after 48 hrs by SRB assay; settings: SK-MEL-2, 48 h
NCI-H322M = assay: Growth inhibition of human NCI-H322M cells after 48 hrs by SRB assay
A549 = assay: Growth inhibition of human A549 cells after 48 hrs by SRB assay; settings: A549, 48 h
Malme-3M = assay: Growth inhibition of human MALME-3M cells after 48 hrs by SRB assay
[9] = Growth inhibition of human MOLT4 cells after 48 hrs by SRB assay; settings: MOLT-4, 48 h
RPMI-8226 = assay: Growth inhibition of human RPMI8226 cells after 48 hrs by SRB assay; settings: RPMI-8226, 48 h
[10] = Growth inhibition of human UACC257 cells after 48 hrs by SRB assay; settings: UACC-257, 48 h
[11] = Growth inhibition of human Hs578T cells after 48 hrs by SRB assay; settings: Hs-578T
[12] = Growth inhibition of human OVCAR3 cells after 48 hrs by SRB assay; settings: OVCAR-3, 48 h
KM12 = assay: Growth inhibition of human KM12 cells after 48 hrs by SRB assay; settings: KM12, 48 h
HOP-62 = assay: Growth inhibition of human HOP62 cells after 48 hrs by SRB assay; settings: HOP-62, 48 h
SW-620 = assay: Growth inhibition of human SW620 cells after 48 hrs by SRB assay; settings: SW-620, 48 h
[13] = Growth inhibition of human UO31 cells after 48 hrs by SRB assay; settings: UO-31, 48 h
PC-3 = assay: Growth inhibition of human PC3 cells after 48 hrs by SRB assay; settings: PC-3, 48 h
A498 = assay: Growth inhibition of human A498 cells after 48 hrs by SRB assay; settings: A498, 48 h
MDA-MB-468 = assay: Growth inhibition of human MDA-MB-468 cells after 48 hrs by SRB assay; settings: MDA-MB-468, 48 h
SK-MEL-5 = assay: Growth inhibition of human SK-MEL-5 cells after 48 hrs by SRB assay; settings: SK-MEL-5, 48 h
T47D = assay: Growth inhibition of human T47D cells after 48 hrs by SRB assay
CCRF-CEM = assay: Growth inhibition of human CCRF-CEM cells after 48 hrs by SRB assay
[14] = Growth inhibition of human LOXIMVI cells after 48 hrs by SRB assay; settings: LOX IMVI
[15] = Growth inhibition of human OVCAR4 cells after 48 hrs by SRB assay; settings: OVCAR-4, 48 h
K562 = assay: Growth inhibition of human K562 cells after 48 hrs by SRB assay; settings: K562, 48 h
SK-MEL-28 = assay: Growth inhibition of human SK-MEL-28 cells after 48 hrs by SRB assay; settings: SK-MEL-28, 48 h
SNB-19 = assay: Growth inhibition of human SNB19 cells after 48 hrs by SRB assay; settings: SNB-19, 48 h
[16] = Growth inhibition of human EKVX cells after 48 hrs by SRB assay
ACHN = assay: Growth inhibition of human ACHN cells after 48 hrs by SRB assay
DU-145 = assay: Growth inhibition of human DU145 cells after 48 hrs by SRB assay; settings: DU-145, 48 h
SNB-75 = assay: Growth inhibition of human SNB75 cells after 48 hrs by SRB assay; settings: SNB-75, 48 h
CAKI-1 = assay: Growth inhibition of human Caki1 cells after 48 hrs by SRB assay; settings: CAKI-1, 48 h
NCI-H522 = assay: Growth inhibition of human NCI-H522 cells after 48 hrs by SRB assay; settings: NCI-H522, 48 h
[17] = Growth inhibition of human OVCAR8 cells after 48 hrs by SRB assay; settings: OVCAR-8, 48 h
NCI-H23 = assay: Growth inhibition of human NCI-H23 cells after 48 hrs by SRB assay; settings: NCI-H23, 48 h
SF-268 = assay: Growth inhibition of human SF268 cells after 48 hrs by SRB assay; settings: SF-268, 48 h

COc1ccc(-c2nc3ccccn3c2/C=C/C(=O)c2cc(OC)c(OC)c(OC)c2)cc1OC
GI50 (786-0): 3740 nM
GI50 (TK-10): 3280 nM
GI50 (MDA-MB-231): 3280 nM
GI50 (SR): 1900 nM
GI50 (HL-60(TB)): 2530 nM
GI50 (NCI-H460): 2990 nM
GI50 (M14): 4480 nM
GI50 [1]: 2180 nM
GI50 [2]: 3800 nM
GI50 (NCI-H226): 6100 nM
GI50 (HCT-116): 2620 nM
GI50 (U-251): 2910 nM
GI50 [3]: 890 nM
GI50 (MDA-MB-435): 1780 nM
GI50 [4]: 3730 nM
GI50 (MCF7): 2760 nM
GI50 (SK-OV-3): 4920 nM
GI50 [5]: 1850 nM
GI50 [6]: 4860 nM
GI50 (SN12C): 4100 nM
GI50 [7]: 2710 nM
GI50 [8]: 7380 nM
GI50 (IGROV-1): 3030 nM
GI50 (COLO 205): 3920 nM
GI50 (HT-29): 3200 nM
GI50 (SK-MEL-2): 2370 nM
GI50 (NCI-H322M): 2080 nM
GI50 (A549): 3860 nM
GI50 (Malme-3M): 2360 nM
GI50 [9]: 2180 nM
GI50 (RPMI-8226): 390 nM
GI50 [10]: 3240 nM
GI50 [11]: 1850 nM
GI50 [12]: 2470 nM
GI50 (KM12): 2520 nM
GI50 (HOP-62): 4420 nM
GI50 (SW-620): 2780 nM
GI50 [13]: 550 nM
GI50 (PC-3): 3710 nM
GI50 (A498): 2930 nM
GI50 (MDA-MB-468): 2280 nM
GI50 (SK-MEL-5): 1500 nM
GI50 (T47D): 3010 nM
GI50 (CCRF-CEM): 1540 nM
GI50 [14]: 2260 nM
GI50 [15]: 2430 nM
GI50 (K562): 2990 nM
GI50 (SK-MEL-28): 3300 nM
GI50 (SNB-19): 4910 nM
GI50 [16]: 1710 nM
GI50 (ACHN): 3220 nM
GI50 (DU-145): 2630 nM
GI50 (SNB-75): 3920 nM
GI50 (CAKI-1): 1390 nM
GI50 (NCI-H522): 2740 nM
GI50 [17]: 2830 nM
GI50 (NCI-H23): 3780 nM
GI50 (SF-268): 3580 nM
